System: β-amyloid production by 7W WT APP751 CHO cells
Assay: Screening of dihydropyridine compounds (Maybridge), Aβ1-40 and Aβ1-42 ELISA (Example 2)
Type: cell-based, Chinese hamster
Settings: 30 μM, 24 hours (FIGS. 5A-B)
Protocol: Dihydropyridine compounds were obtained from Maybridge (England). Each compound was dissolved in DMSO. 7W WT APP751 CHO cells overexpressing APP751 were plated into 96-well culture plates in 200 μL of culture medium. Each compound from the library was added to confluent cells to a final concentration of 30 μM. After 24 hours of treatment, culture medium was collected and dissolved 10-fold and 2-fold for measuring the level of Aβ1-40 and Aβ1-42, respectively. Aβ1-40 and Aβ1-42 were determined using commercially available ELISAs (Biosource, CA), following the recommendations of the manufacturer.

| SMILES | concentration of Aβ1-40 compared to controls | concentration of total β-amyloid (Aβ1-40+Aβ1-42) compared to controls | concentration of Aβ1-42 compared to controls |
| --- | --- | --- | --- |
| CCOC(=O)C1=C(C)NC(C)=C(C(=O)OCC)C1c1cccc(Cl)c1 [JFD 03274, diethyl 4-(3-chlorophenyl)-2,6-dimethyl-1,4-dihydropyridine-3,5-dicarboxylate] | significantly decreased | significantly decreased | – |
| CCOC(=O)C1=C(C)NC(C)=C(C(=O)OCC)C1c1ccc(F)cc1 [JFD 03318, diethyl 4-(4-fluorophenyl)-2,6-dimethyl-1,4-dihydropyridine-3,5-dicarboxylate] | significantly decreased | significantly decreased | significantly decreased |
| CCOC(=O)C1=C(C)NC(C)=C(C(=O)OCC)C1c1ccc(Cl)cc1Cl [RJC 03403, diethyl 4-(2,4-dichlorophenyl)-2,6-dimethyl-1,4-dihydro-3,5-pyridinedicarboxylate] | significantly decreased | significantly decreased | significantly decreased |
| O=C1CC(c2ccccc2)CC(=O)N1c1ccc(Oc2ccc(Cl)cc2)cc1 [PD 00463, 1-[4-(4-chlorophenoxy)phenyl]-4-phenyldihydropyridine-2,6(1H,3H)-dione] | significantly decreased | significantly decreased | significantly decreased |
| CC1=C(C#N)C(c2ccc(Cl)c(Cl)c2)C(C#N)=C(C)N1 [JFD 03292, 4-(3,4-dichlorophenyl)-2,6-dimethyl-1,4-dihydropyridine-3,5-dicarbonitrile] | significantly decreased | significantly decreased | – |
| O=C1C=C(c2ccccc2)CN(C2CCCCC2)C1=O [HTS 01512, 1-cyclohexyl-5-phenyl-1,6-dihydro-2,3-pyridinedione] | significantly decreased | significantly decreased | significantly decreased |
| COC(=O)C1=C(C)NC(C)=C(C(=O)OC)C1c1ccc(-c2ccsc2C(=O)OC)o1 [SEW 02070, dimethyl 4-{5-[2-(methoxycarbonyl)-3-thienyl]-2-furyl}-2,6-dimethyl-1,4-dihydropyridine-3,5-dicarboxylate] | significantly decreased | significantly decreased | – |
| CCOC(=O)C1=C(C)NC(C)=C(C(=O)OCC)C1c1ccccc1[N+](=O)[O-] [JFD 03311, diethyl 2,6-dimethyl-4-(2-nitrophenyl)-1,4-dihydropyridine-3,5-dicarboxylate] | significantly decreased | significantly decreased | – |
| CCOC(=O)C1=C(C)NC(C)=C(C(=O)OCC)C1c1ccc(Cl)c(Cl)c1 [JFD 03294, diethyl 4-(3,4-dichlorophenyl)-2,6-dimethyl-1,4-dihydropyridine-3,5-dicarboxylate] | significantly decreased | significantly decreased | significantly decreased |
| CCOC(=O)C1=C(C)NC(C)=C(C(=O)OCC)C1c1ccc(C)cc1 [JFD 03282, diethyl 2,6-dimethyl-4-(4-methylphenyl)-1,4-dihydropyridine-3,5-dicarboxylate] | significantly decreased | significantly decreased | significantly decreased |
| CCOC(=O)C1=C(C)NC(C)=C(C(=O)OCC)C1c1ccc(Br)cc1 [JFD 01209, diethyl 4-(4-bromophenyl)-2,6-dimethyl-1,4-dihydropyridine-3,5-dicarboxylate] | significantly decreased | significantly decreased | significantly decreased |
| CCOC(=O)C1=C(C)NC(C)=C(C(=O)OCC)C1c1ccc([N+](=O)[O-])cc1 [JFD 03266, diethyl 2,6-dimethyl-4-(4-nitrophenyl)-1,4-dihydropyridine-3,5-dicarboxylate] | significantly decreased | significantly decreased | – |
| CCOC(=O)C1=C(C)NC(C)=C(C(=O)OCC)C1c1ccc(-c2cc(C(F)(F)F)cc(C(F)(F)F)c2)o1 [CD 04170, diethyl 4-{5-[3,5-di(trifluoromethyl)phenyl]-2-furyl}-2,6-dimethyl-1,4-dihydro-pyridine-3,5-dicarboxylate] | significantly decreased | significantly decreased | significantly decreased |
| CCOC(=O)C1=C(C)NC(C)=C(C(=O)OCC)C1c1ccc(-c2ccccc2C(F)(F)F)o1 [RJC 03405, diethyl 2,6-dimethyl-4-{5-[2-(trifluoromethyl)phenyl]-2-furyl}-1,4-dihydro-3,5-pyridinedicarboxylate] | significantly decreased | significantly decreased | – |
| CCOC(=O)C1=C(C)NC(C)=C(C(=O)OCC)C1c1ccc(Cl)cc1 [BTB 14328, diethyl 4-(4-chlorophenyl)-2,6-dimethyl-1,4-dihydropyridine-3,5-dicarboxylate] | significantly decreased | significantly decreased | significantly decreased |
| CCOC(=O)C1=C(C)NC(C)=C(C(=O)OCC)C1c1ccc(OC)cc1Cl [RJC 03413, diethyl 4-(2-chloro-4-methoxyphenyl)-2,6-dimethyl-1,4-dihydro-3,5-pyridinedicarboxylate] | significantly decreased | significantly decreased | – |
| N#Cc1c(-c2cn(-c3ccccc3)nc2-c2ccccc2)cc(-c2ccccc2)[nH]c1=O [HTS 07578, 4-(1,3-diphenyl-1H-pyrazol-4-yl)-2-oxo-6-phenyl-1,2-dihydro-3-pyridinecarbonitrile] | significantly decreased | significantly decreased | significantly decreased |

From patent US20060188938A1, “Compounds for inhibiting beta-amyloid production and methods of identifying the compounds” (priority 2005, published 2006)
